Test results taken from patent US12559733B2, “Optimization of type IV BRAF inhibitors for the treatment of melanoma” (UNIVERSITY OF SOUTH CAROLINA, priority 2020, dated 2026).
Where a SMILES comes first, the peptide text is derived from it. Bridges are numbered along the chain shown (N, C = ends). Where no end group is shown, it is not given here. [ ]: non-standard residue; d: D form. The star is where a group is joined. NMeR = CN[C@@H](CCCNC(=N)N)C(=O)O; X1 = CC(C)CCOc1ccc(CCN*)cc1; Orn = NCCC[C@H](N)C(=O)O; Bz = O=C(c1ccccc1)*

System: not listed separately
Test: Parallel artificial membrane permeability assay (PAMPA)
Assay type: in vitro ADME
Details: phospholipid and dodecane artificial membrane, mass spectroscopy
Procedure: A parallel artificial membrane permeability assay (PAMPA) was carried out using phospholipid and dodecane as the artificial membrane.

Compound	passive permeability
CSCC[C@H](NC(=O)[C@H](Cc1ccccc1)NC(=O)[C@H](CC(C)C)NC(=O)[C@H](CC(C)C)NC(=O)[C@@H]1CCC(=O)NCCCC[C@H](NC(=O)[C@H](CCCCN)NC(=O)[C@H](CCCNC(=N)N)NC(=O)[C@@H](N)CC(C)C)C(=O)N[C@@H](CCCNC(=N)N)C(=O)N[C@@H](Cc2c[nH]cn2)C(=O)N[C@@H](C(C)C)C(=O)N[C@@H](C)C(=O)N1)C(=O)NCC(N)=O [compound 38]	no detectable trace of passive permeability
CC[C@H](C)[C@H](NC(=O)[C@H](CC(N)=O)NC(=O)[C@@H](NC(=O)[C@H](Cc1cnc[nH]1)NC(=O)[C@H](CCCNC(=N)N)NC(=O)[C@@H](NC(=O)[C@H](CCCCN)NC(=O)[C@H](CCCNC(=N)N)NC(=O)[C@H](CC(C)C)NC(=O)[C@@H](NC(=O)CN)C(C)C)[C@@H](C)O)C(C)C)C(=O)N[C@@H](CC(C)C)C(=O)N[C@@H](CC(C)C)C(=O)N[C@@H](Cc1ccccc1)C(=O)N[C@@H](CCSC)C(=O)NCC(=O)N[C@@H](Cc1ccc(O)cc1)C(=O)N[C@@H](CO)C(=O)N[C@H](C(=O)O)[C@@H](C)O [SEQ ID NO: 1]	no detectable trace of passive permeability
CC(C)[C@@H]1NC(=O)[C@H](Cc2c[nH]cn2)NC(=O)[C@H](CCCNC(=N)N)NC(=O)[C@@H](N)CCCCNC(=O)CC[C@@H](C(N)=O)NC(=O)[C@H](C)NC1=O [compound 48] (H-KRHVAE-NH2; lactam 1-6)	no detectable trace of passive permeability
CC(C)CCOc1ccc(CCNC(=O)[C@@H]2CCC(=O)NCCCC[C@H](NC(=O)c3ccccc3)C(=O)N(C)[C@@H](CCCNC(=N)N)C(=O)N[C@H](C)C(=O)N3CCC[C@H]3C(=O)N[C@@H](C)C(=O)N2)cc1 [compound 64] (Bz-K[NMeR][dA]PAE-X1; lactam 1-6)	no detectable trace of passive permeability

Target: dimer forming interface (Homo sapiens, UniProt P15056)
Test: Kd (μM)
Details: not given

dimer forming interface, sequence (P15056 2-766 limits assumed): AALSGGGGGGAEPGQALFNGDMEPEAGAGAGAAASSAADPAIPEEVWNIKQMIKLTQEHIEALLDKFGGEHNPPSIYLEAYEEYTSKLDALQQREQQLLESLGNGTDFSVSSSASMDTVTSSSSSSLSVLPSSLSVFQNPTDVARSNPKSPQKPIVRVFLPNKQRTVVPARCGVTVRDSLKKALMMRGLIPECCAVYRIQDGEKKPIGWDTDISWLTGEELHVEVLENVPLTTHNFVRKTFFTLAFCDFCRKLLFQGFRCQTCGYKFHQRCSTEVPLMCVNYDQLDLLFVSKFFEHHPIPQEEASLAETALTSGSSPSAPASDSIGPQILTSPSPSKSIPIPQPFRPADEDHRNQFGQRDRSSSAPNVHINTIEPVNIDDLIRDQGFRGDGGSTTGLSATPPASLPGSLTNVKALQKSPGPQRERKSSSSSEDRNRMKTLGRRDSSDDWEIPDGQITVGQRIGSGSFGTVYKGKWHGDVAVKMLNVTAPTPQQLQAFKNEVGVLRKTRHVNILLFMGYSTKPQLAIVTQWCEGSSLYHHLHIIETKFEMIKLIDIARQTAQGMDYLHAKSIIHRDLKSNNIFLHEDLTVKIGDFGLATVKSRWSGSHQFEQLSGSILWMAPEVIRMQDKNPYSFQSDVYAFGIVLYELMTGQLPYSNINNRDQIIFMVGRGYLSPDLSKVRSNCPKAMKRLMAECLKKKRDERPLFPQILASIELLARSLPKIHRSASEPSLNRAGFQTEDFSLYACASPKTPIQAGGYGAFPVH

Compound	Kd [nM]
VLRKTRHVNIALFMG [compound 28]	1020 ± 140
CC[C@H](C)[C@H](NC(=O)[C@H](CC(N)=O)NC(=O)[C@@H](NC(=O)[C@H](Cc1c[nH]cn1)NC(=O)[C@H](CCCNC(=N)N)NC(=O)[C@@H](NC(=O)[C@H](CCCCN)NC(=O)[C@H](CCCNC(=N)N)NC(=O)[C@H](CC(C)C)NC(=O)[C@@H](NC(C)=O)C(C)C)[C@@H](C)O)C(C)C)C(=O)N[C@@H](CC(C)C)C(=O)N[C@@H](CC(C)C)C(=O)N[C@@H](Cc1ccccc1)C(=O)N[C@@H](CCSC)C(=O)NCC(=O)O [compound 19]	800 ± 83
VARKTRHVNILLFMG [compound 21]	450 ± 30
VLRKTRHVNILLAMG [compound 29]	570 ± 80
VLRKTRAVNILLFMG [compound 25]	2700 ± 400
VLAKTRHVNILLFMG [SEQ ID NO: 22]	360 ± 30
VLRKTRHVNALLFMG [compound 27]	2690 ± 350
VLRKTAHVNILLFMG [compound 24]	2400 ± 350
VLRKTRHVNILLFAG [compound 30]	540 ± 150
LRKTRHVNILLFMG [SEQ ID NO: 31]	190 ± 130
LLKTRHVNILLFMG [compound 32]	550 ± 105

Target: T1, B-Raf (Homo sapiens, UniProt P15056)
Test: Isothermal Titration Calorimetry (ITC) of B-Raf binding of peptides
Details: change in enthalpy
Source text: Isothermal Titration Calorimetry (ITC) of B-Raf Binding of Peptides
An isothermal titration calorimeter composed of two identical cells surrounded by an adiabatic jacket was used to perform ITC measurements. The thermopile/thermocouple circuits were used to detect temperature differences between a reference cell (filled with buffer or water) and a sample cell containing the macromolecule. During an experiment, ligand is titrated into the sample cell in precisely known aliquots, causing heat to be either taken up or evolved (depending on the nature of the reaction). Measurements consist of the time-dependent input of power required to maintain equal temperatures between the sample and reference cells. In an exothermic reaction, the temperature in the sample cell increases upon addition of ligand. This causes the feedback power to the sample cell to be decreased (remember: a reference power is applied to the reference cell) in order to maintain an equal temperature between the two cells. In an endothermic reaction, the opposite occurs; the feedback circuit increases the power in order to maintain a constant temperature (isothermic/isothermal operation). […] The pattern of these heat effects as a function of the molar ratio [ligand]/[macromolecule] can then be analyzed to give the thermodynamic parameters of the interaction under study.

T1 sequence (P15056 whole entry): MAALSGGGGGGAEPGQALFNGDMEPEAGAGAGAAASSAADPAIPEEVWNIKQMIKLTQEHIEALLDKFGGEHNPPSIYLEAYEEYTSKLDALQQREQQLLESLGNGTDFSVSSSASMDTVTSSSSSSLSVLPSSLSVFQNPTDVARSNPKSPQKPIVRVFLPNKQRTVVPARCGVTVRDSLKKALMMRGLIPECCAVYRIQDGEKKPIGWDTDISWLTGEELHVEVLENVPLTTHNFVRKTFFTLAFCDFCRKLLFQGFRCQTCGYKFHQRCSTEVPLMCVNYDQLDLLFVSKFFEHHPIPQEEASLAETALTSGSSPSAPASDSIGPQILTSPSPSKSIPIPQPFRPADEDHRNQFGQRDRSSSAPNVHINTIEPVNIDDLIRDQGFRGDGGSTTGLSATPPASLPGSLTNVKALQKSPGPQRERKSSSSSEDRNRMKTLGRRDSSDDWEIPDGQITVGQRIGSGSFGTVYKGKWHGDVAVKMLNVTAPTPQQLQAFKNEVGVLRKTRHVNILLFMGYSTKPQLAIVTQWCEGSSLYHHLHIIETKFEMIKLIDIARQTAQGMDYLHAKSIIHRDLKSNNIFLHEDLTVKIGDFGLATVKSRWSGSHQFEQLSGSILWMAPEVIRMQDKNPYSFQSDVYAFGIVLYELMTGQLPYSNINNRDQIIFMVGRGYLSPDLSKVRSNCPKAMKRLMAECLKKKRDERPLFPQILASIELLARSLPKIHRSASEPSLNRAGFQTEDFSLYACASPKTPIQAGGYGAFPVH

Compound	ΔH [kcal/mol]
CC[C@H](C)[C@H](NC(=O)[C@H](CC(N)=O)NC(=O)[C@@H](NC(=O)[C@H](Cc1c[nH]cn1)NC(=O)[C@H](CCCNC(=N)N)NC(=O)[C@H](C)NC(=O)[C@H](CCCCN)NC(=O)[C@H](CCCNC(=N)N)NC(=O)[C@H](CC(C)C)NC(=O)[C@@H](NC(=O)CN)C(C)C)C(C)C)C(=O)N[C@@H](CC(C)C)C(=O)N[C@@H](CC(C)C)C(=O)N[C@@H](Cc1ccccc1)C(=O)N[C@@H](CCSC)C(=O)NCC(=O)N[C@@H](Cc1ccc(O)cc1)C(=O)N[C@@H](CO)C(=O)N[C@H](C(=O)O)[C@@H](C)O [SEQ ID NO: 8]	-8.32

Same assay, conditions: change in entropy, text b156

Compound	ΔS [J/mol·K]
CC[C@H](C)[C@H](NC(=O)[C@H](CC(N)=O)NC(=O)[C@@H](NC(=O)[C@H](Cc1c[nH]cn1)NC(=O)[C@H](CCCNC(=N)N)NC(=O)[C@H](C)NC(=O)[C@H](CCCCN)NC(=O)[C@H](CCCNC(=N)N)NC(=O)[C@H](CC(C)C)NC(=O)[C@@H](NC(=O)CN)C(C)C)C(C)C)C(=O)N[C@@H](CC(C)C)C(=O)N[C@@H](CC(C)C)C(=O)N[C@@H](Cc1ccccc1)C(=O)N[C@@H](CCSC)C(=O)NCC(=O)N[C@@H](Cc1ccc(O)cc1)C(=O)N[C@@H](CO)C(=O)N[C@H](C(=O)O)[C@@H](C)O [SEQ ID NO: 8]	−28.4

Target: T1, B-Raf
Test: Dissociation constant (Kd) determination from intrinsic Trp fluorescence (ITF)
Assay type: binding
Details: not given

Compound	Kd [nM]
CSCC[C@H](NC(=O)[C@H](Cc1ccccc1)NC(=O)[C@H](CC(C)C)NC(=O)[C@H](CC(C)C)NC(=O)[C@@H]1CCC(=O)NCCCC[C@H](N)C(=O)N[C@@H](CCCNC(=N)N)C(=O)N[C@@H](Cc2c[nH]cn2)C(=O)N[C@@H](C(C)C)C(=O)N[C@@H](C)C(=O)N1)C(=O)NCC(N)=O [compound 47] (H-KRHVAELLFMG-NH2; lactam 1-6)	590 ± 20
CSCC[C@H](NC(=O)[C@H](Cc1ccccc1)NC(=O)[C@H](CCC(C)C)NC(=O)[C@H](CC(C)C)NC(=O)[C@@H]1CCC(=O)NCCC[C@H](NC(=O)[C@H](CCCCN)NC(=O)[C@H](CCCNC(=N)N)NC(=O)[C@H](CC(C)C)NC(=O)[C@@H](N)C(C)C)C(=O)N[C@@H](CCCNC(=N)N)C(=O)N[C@@H](Cc2c[nH]cn2)C(=O)N[C@@H](C(C)C)C(=O)N[C@@H](C)C(=O)N1)C(=O)NCC(N)=O [compound 57]	430 ± 30
CSCC[C@H](NC(=O)[C@H](Cc1ccccc1)NC(=O)[C@H](CC(C)C)NC(=O)[C@H](CC(C)C)NC(=O)[C@@H]1CCC(=O)NCCCC[C@H](NC(=O)[C@H](CCCCN)NC(=O)[C@H](CCCNC(=N)N)NC(=O)[C@H](CC(C)C)NC(=O)[C@@H](N)C(C)C)C(=O)N[C@@H](CCCNC(=N)N)C(=O)N[C@@H](Cc2c[nH]cn2)C(=O)N[C@@H](C(C)C)C(=O)N[C@@H](C)C(=O)N1)C(=O)NCC(N)=O [compound 59]	61 ± 10
CC[C@H](C)[C@H](NC(=O)[C@H](CC(C)C)NC(=O)[C@@H]1CCC(=O)NCCC[C@H](NC(=O)[C@H](CCCCN)NC(=O)[C@H](CCCNC(=N)N)NC(=O)[C@H](CC(C)C)NC(=O)[C@@H](N)C(C)C)C(=O)N[C@@H](CCCNC(=N)N)C(=O)N[C@@H](Cc2c[nH]cn2)C(=O)N[C@@H](C(C)C)C(=O)N[C@@H](C)C(=O)N1)C(=O)N[C@@H](Cc1ccccc1)C(=O)N[C@@H](CCSC)C(=O)NCC(N)=O [compound 58] (H-VLRK[Orn]RHVAELIFMG-NH2; lactam 5-10; N-terminus assumed)	170 ± 60
CSCC[C@H](NC(=O)[C@H](Cc1ccccc1)NC(=O)[C@H](CC(C)C)NC(=O)[C@H](CC(C)C)NC(=O)[C@@H]1CCC(=O)NCCCC[C@H](NC(=O)[C@H](CCCCN)NC(=O)[C@H](CCCNC(=N)N)NC(=O)[C@H](CC(C)C)NC(=O)[C@@H](N)C(C)C)C(=O)N(C)[C@@H](CCCNC(=N)N)C(=O)N[C@@H](Cc2c[nH]cn2)C(=O)N[C@@H](C(C)C)C(=O)N[C@@H](C)C(=O)N1)C(=O)NCC(N)=O [compound 60]	39 ± 20
CSCC[C@H](NC(=O)[C@H](Cc1ccccc1)NC(=O)[C@H](CC(C)C)NC(=O)[C@H](CC(C)C)NC(=O)[C@@H]1CCC(=O)NCCCC[C@H](NC(=O)[C@H](CCCCN)NC(=O)[C@H](CCCNC(=N)N)NC(=O)[C@H](CC(C)C)NC(=O)[C@@H](N)C(C)C)C(=O)N[C@@H](CCCNC(=N)N)C(=O)N[C@@H](Cc2c[nH]cn2)C(=O)N[C@@H](C(C)C)C(=O)N[C@@H](CC(N)=O)C(=O)N1)C(=O)NCC(N)=O [compound 53]	1890 ± 330
CSCC[C@H](NC(=O)[C@H](Cc1ccccc1)NC(=O)[C@H](CC(C)C)NC(=O)[C@H](CC(C)C)NC(=O)[C@@H]1CCC(=O)NCCCC[C@H](N)C(=O)N[C@@H](CCCNC(=N)N)C(=O)N[C@@H](Cc2c[nH]cn2)C(=O)N2CCC[C@H]2C(=O)N[C@@H](C)C(=O)N1)C(=O)NCC(N)=O [compound 61] (H-KRHPAELLFMG-NH2; lactam 1-6)	160 ± 20
CC(C)[C@@H]1NC(=O)[C@H](Cc2c[nH]cn2)NC(=O)[C@H](CCCNC(=N)N)NC(=O)[C@@H](N)CCCCNC(=O)CC[C@@H](C(N)=O)NC(=O)[C@H](C)NC1=O [compound 48] (H-KRHVAE-NH2; lactam 1-6)	300 ± 30

Same assay, conditions: FIG. 1, unit not given

Compound	Kd, binding affinity to the dimer forming interface of B-Raf
GVLRKTRFVNILLFMGYST [SEQ ID NO: 9]	no measurable binding
GVLRKTHHVNILGFWGYST [SEQ ID NO: 2]	no measurable binding
GVLRKTRHVNILLDMGYST [SEQ ID NO:14]	no measurable binding

Same assay, conditions: Table 2, binding affinity with BRAF, cyclized vs linear peptides; read-out: Kd

Kd [nM]	Compound
5750 ± 1200	VLRKTRHVNILLFM [compound 16]

System: NRASQ61K-mutant SBcl2 melanoma cells
Test: Western blotting of MEK/ERK signalling in melanoma cells treated with peptide and PLX4032
Assay type: cell-based, human
Details: FIG. 2A, cells electroporated with peptide, 1 μM PLX4032 1 hour or DMSO
Procedure: Following recovery at 37° C. for 30 minutes, the cells were treated with 1 μM PLX4032 for 1 hour or DMSO as a vehicle control. Subsequently, the cells were harvested, lysed using RIPA buffer and analyzed by Western blotting using the indicated antibodies. […] Four hours prior to harvest, the cells were treated with 1 μM vemurafenib (PLX4032), or the same volume of DMSO as vehicle control. RIPA buffer lysates were subjected to Western blotting using the indicated antibodies. Detection of Hsp90 served as a representative loading control.
NRAS^Q61K-mutant SBCl2 melanoma cells were electroporated with the BioRad Gene Pulser XCell™ in the presence of the indicated concentrations of peptide. Following recovery at 37° C. for 30 minutes, cells were treated with 1 μM PLX4032 for 1 hour or DMSO as a vehicle control. Subsequently, the cells were harvested, lysed using RIPA buffer, and analyzed by Western blotting using the indicated antibodies.

Compound	downstream signaling of MEK and ERK (pMEK, pERK)
CC[C@H](C)[C@H](NC(=O)[C@H](CC(N)=O)NC(=O)[C@@H](NC(=O)[C@H](Cc1cnc[nH]1)NC(=O)[C@H](CCCNC(=N)N)NC(=O)[C@@H](NC(=O)[C@H](CCCCN)NC(=O)[C@H](CCCNC(=N)N)NC(=O)[C@H](CC(C)C)NC(=O)[C@@H](NC(=O)CN)C(C)C)[C@@H](C)O)C(C)C)C(=O)N[C@@H](CC(C)C)C(=O)N[C@@H](CC(C)C)C(=O)N[C@@H](Cc1ccccc1)C(=O)N[C@@H](CCSC)C(=O)NCC(=O)N[C@@H](Cc1ccc(O)cc1)C(=O)N[C@@H](CO)C(=O)N[C@H](C(=O)O)[C@@H](C)O [SEQ ID NO: 1]	reduce downstream signaling of MEK and ERK

System: SBcl2 melanoma cell
Test: Melanoma cell growth / colony formation
Assay type: cell-based, human
Details: SBcl2 melanoma cells

Compound	concentration that impaired cell growth [µM]
GVLAATAAVNALLFAGYST [SEQ ID NO: 68]	7.2

Same assay, conditions: control vs FAM-TAT-SEQ ID NO: 17

Compound	growth-impairing concentration relative to the test sequence [fold]
GVLAATAAVNALLFAGYST [SEQ ID NO: 68]	4
